pIC50: −log10 of the molar value. Where a name gives a salt, the structure may show the parent alone. Read-outs that look alike come from different tables or passages of the source.
Key:
tubulin = biological target: T1, tubulin (Sus scrofa, UniProt P02550+P02554); test: Evaluation of the inhibition of tubulin polymerization (turbidimetry); format: biochemical, pig; details: tubulin 10 μm (1 mg/ml), 37° C., turbidity at 350 nm; concentration that inhibits the rate of polymerization by 50%; read-out: Inhibition of tubulin polymerization IC 50 (μm)
T1 construct: Tubulin is purified from pig brain according to published methods; from tissue; host or cells: pig brain
T1 sequence (P02550 whole entry): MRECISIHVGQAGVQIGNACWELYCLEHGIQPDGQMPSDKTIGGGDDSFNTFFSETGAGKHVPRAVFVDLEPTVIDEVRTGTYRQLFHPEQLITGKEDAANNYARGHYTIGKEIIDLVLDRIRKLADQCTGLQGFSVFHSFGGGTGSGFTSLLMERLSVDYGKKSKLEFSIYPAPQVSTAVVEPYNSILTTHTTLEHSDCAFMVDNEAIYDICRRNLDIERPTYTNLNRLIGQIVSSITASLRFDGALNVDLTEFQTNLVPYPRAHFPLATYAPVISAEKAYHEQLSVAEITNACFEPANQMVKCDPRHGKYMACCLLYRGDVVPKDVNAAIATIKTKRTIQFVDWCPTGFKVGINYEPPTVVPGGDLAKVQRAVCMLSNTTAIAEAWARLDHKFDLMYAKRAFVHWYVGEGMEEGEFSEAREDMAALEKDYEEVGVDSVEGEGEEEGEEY
T1 sequence (P02554 whole entry): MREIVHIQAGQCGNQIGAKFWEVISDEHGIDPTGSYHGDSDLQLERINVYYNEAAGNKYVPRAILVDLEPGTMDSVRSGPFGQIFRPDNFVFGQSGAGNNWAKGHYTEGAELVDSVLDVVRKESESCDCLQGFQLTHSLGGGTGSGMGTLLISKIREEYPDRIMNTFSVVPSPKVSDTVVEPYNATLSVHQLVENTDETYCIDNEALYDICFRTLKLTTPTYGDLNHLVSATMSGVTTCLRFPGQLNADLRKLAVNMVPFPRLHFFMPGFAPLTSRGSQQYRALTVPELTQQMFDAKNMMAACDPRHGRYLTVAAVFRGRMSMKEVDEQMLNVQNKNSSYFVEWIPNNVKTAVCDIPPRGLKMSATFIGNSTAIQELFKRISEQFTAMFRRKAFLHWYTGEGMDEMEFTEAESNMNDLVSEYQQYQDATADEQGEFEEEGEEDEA
Outline: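 Pig brain tubulin (>95% pure), 10 μm in MES pH 6.8/30% glycerol buffer plus 1 mM GTP and 6 mM MgCl2, with compound at 0.5–10 μm added before polymerization. Polymerization triggered by shift from 6° C to 37° C, followed by turbidity at 350 nm; IC50 is 50% inhibition of polymerization rate.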

HCT116 cells = test: Inhibition of proliferation of the human colon tumor line HCT116 ([14C]-thymidine incorporation); format: cell-based; details: Homo sapiens, read-out: Inhibition of HCT116 proliferation IC 50 (μm)
Description: The proliferation of HCT116 cells is evaluated by measuring the incorporation of [^14C]-thymidine in the following manner. The HCT 116 cells (obtained from the ATCC) are cultured in a DMEM medium (Gibco) containing 10% fetal calf serum and antibiotics (1% penicillin, 1% streptomycin). To perform the proliferation test, the cells are inoculated in cytostar 96-well microplates (Amersham), at a rate of 5000 cells per well. [^14C]-thymidine (0.1 μCi/well) and the products to be evaluated are then added. Variable concentrations of products up to 10 μm are used; the DMSO (solvent used to dissolve the products) should not exceed 0.5% in the medium. 48 hours after incubation at 37° C., the radioactivity incorporated into the cells is measured by counting the plate in a TRI-LUX counter (Wallac). The IC50 is defined as the concentration of product that reduces the radioactivity by 50% compared with an untreated control. A product whose IC50 is less than 3 μm is considered cytotoxic.

[1] = HCT-116, 48 h, 48 hours at 37° C.

## COc1ccccc1N1CCN(C(=O)c2cc(C)nn2-c2cccc(F)c2)CC1 [3/90]
tubulin
  pIC50: 5.52
HCT116 cells; [1]
  pIC50: 7.48

## Cc1cc(C(=O)N2CCN(c3cccc(Cl)c3)CC2)n(-c2ccccn2)n1 [Example E22, [4-(3-Chlorophenyl)piperazin-1-yl](5-methyl-2-pyrid-2-yl-2H-pyrazol-3-yl)-methanone]
tubulin
  pIC50: 5.72
HCT116 cells; [1]
  pIC50: 8.19

## COc1cccc(-n2nc(C)cc2C(=O)N2CCN(c3cc(Cl)ccc3OC)CC2)c1 [3/5]
tubulin
  pIC50: 5.52
HCT116 cells; [1]
  pIC50: 6.62

## Cc1cc(C(=O)N2CCN(c3cccc(Cl)c3)CC2)n(-c2cccc(Cl)c2)n1 [3/34]
tubulin
  pIC50: 5.60
HCT116 cells; [1]
  pIC50: 6.28

## O=C(c1cc(-c2ccsc2)nn1-c1ccccc1)N1CCN(c2cccc(Cl)c2)CC1 [Example E68, [4-(3-Chlorophenyl)piperazin-1-yl][2-phenyl-5-(thiophen-3-yl)-2H-pyrazol-3-yl]methanone]
tubulin
  pIC50: 5.85
HCT116 cells; [1]
  pIC50: 6.47

## COc1ccccc1N1CCN(C(=O)c2cc(C)nn2-c2ccccc2)CC1 [3/7]
tubulin
  pIC50: 5.25
HCT116 cells; [1]
  pIC50: 7.40

## Cc1cc(C(=O)N2CCN(c3cc(Cl)ccc3C)CC2)n(-c2cccc(F)c2)n1 [3/21]
tubulin
  pIC50: 5.74
HCT116 cells; [1]
  pIC50: 6.33

## Cc1cc(C(=O)N2CCN(c3ccc(F)cc3)CC2)n(-c2cccc(F)c2)n1 [3/92]
tubulin
  pIC50: 4.90
HCT116 cells; [1]
  pIC50: 6.80

## Cc1cc(C(=O)N2CCN(c3cccc(C)c3C)CC2)n(-c2ccc(F)cc2)n1 [3/148]
tubulin
  pIC50: 5.82
HCT116 cells; [1]
  pIC50: 6.70

## Cc1cc(C(=O)N2CCN(c3cccc(Cl)c3)CC2)n(-c2ccccc2C)n1 [Example E45, [4-(3-Chlorophenyl)piperazin-1-yl](5-methyl-2-o-tolyl-2H-pyrazol-3-yl)methanone]
tubulin
  pIC50: 6.00
HCT116 cells; [1]
  pIC50: 7.98

## Cc1cc(C(=O)N2CCN(c3ccccc3C)CC2)n(-c2ccc(F)cc2)n1 [3/147]
tubulin
  pIC50: 5.15
HCT116 cells; [1]
  pIC50: 5.89

## COc1cc(OC)cc(N2CCN(C(=O)c3cc(/C=C/c4ccc(F)cc4)nn3-c3ccccc3)CC2)c1 [Example E87, [4-(3,5-Dimethoxyphenyl)piperazin-1-yl]-{5-[E-2-(4-fluorophenyl)vinyl]-2-phenyl-2H-pyrazol-3-yl}methanone]
tubulin
  pIC50: 5.90
HCT116 cells; [1]
  pIC50: 5.89

## COc1cc(OC)cc(N2CCN(C(=O)c3cc(C)nn3-c3ccccc3)CC2)c1 [Example E20, [4-(3,5-Dimethoxyphenyl)piperazin-1-yl](5-methyl-2-phenyl-2H-pyrazol-3-yl)-methanone]
tubulin
  pIC50: 6.54
HCT116 cells; [1]
  pIC50: 8.82

## Cc1cccc(-n2nc(C)cc2C(=O)N2CCN(c3cccc4ccccc34)CC2)c1 [3/32]
tubulin
  pIC50: 5.52
HCT116 cells; [1]
  pIC50: 6.25

## Cc1cc(C(=O)N2CCN(c3ccccc3C(F)(F)F)CC2)n(-c2ccccc2F)n1 [3/145]
tubulin
  pIC50: 5.00
HCT116 cells; [1]
  pIC50: 5.82

## CCc1ccccc1N1CCN(C(=O)c2cc(C)nn2-c2ccc(F)cc2)CC1 [3/104]
tubulin
  pIC50: 5.30
HCT116 cells; [1]
  pIC50: 6.55

## Cc1cccc(-n2nc(C)cc2C(=O)N2CCN(c3ccc(Cl)cc3)CC2)c1 [3/52]
tubulin
  pIC50: 4.89
HCT116 cells; [1]
  pIC50: 6.59

## COc1ccccc1N1CCN(C(=O)c2cc(C)nn2-c2ccc(F)cc2)CC1 [3/102]
tubulin
  pIC50: 4.89
HCT116 cells; [1]
  pIC50: 6.74

## CCOC(=O)c1cccc(N2CCN(C(=O)c3cc(C)nn3-c3ccccc3)CC2)c1 [Example E28, ethyl ester of 3-[4-(5-methyl-2-phenyl-2H-pyrazole-3-carbonyl)piperazin-1-yl]benzoic acid]
tubulin
  pIC50: 5.47
HCT116 cells; [1]
  pIC50: 7.22

## N#Cc1cccc(-n2nc(C(F)(F)F)cc2C(=O)N2CCN(c3cccc(Cl)c3)CC2)c1 [Example E55, 3-{5-[4-(3-Chlorophenyl)piperazine-1-carbonyl]-3-trifluoromethylpyrazol-1-yl}benzonitrile]
tubulin
  pIC50: 5.44
HCT116 cells; [1]
  pIC50: 5.87

## Cc1cc(C(=O)N2CCN(c3cccc(-c4ccccc4)c3)CC2)n(-c2ccccc2)n1 [Example E24, [4-(Biphenyl-3-yl)piperazin-1-yl)(5-methyl-2-phenyl-2H-pyrazol-3-yl)methanone]
tubulin
  pIC50: 5.77
HCT116 cells; [1]
  pIC50: 6.51

## COc1cc(OC)cc(N2CCN(C(=O)c3cccn3-c3ccccc3)CC2)c1 [Example E51, [4-(3,5-Dimethoxyphenyl)piperazin-1-yl](1-phenyl-1H-pyrrol-2-yl)methanone hydrochloride]
tubulin
  pIC50: 5.89
HCT116 cells; [1]
  pIC50: 5.64

## CSc1ccccc1N1CCN(C(=O)c2cc(C)nn2-c2cccc(C)c2)CC1 [3/51]
tubulin
  pIC50: 5.70
HCT116 cells; [1]
  pIC50: 7.43

## Cc1cc(C(=O)N2CCN(c3cccc(Cl)c3)CC2)n(-c2cccc(F)c2)n1 [3/18]
tubulin
  pIC50: 5.70
HCT116 cells; [1]
  pIC50: 7.55

## COc1cc(OC)cc(N2CCN(C(=O)c3cc(C(Br)Br)nn3-c3ccccc3)CC2)c1 [Example E78, [4-(3,5-Dimethoxyphenyl)piperazin-1-yl](3-dibromomethyl-1-phenyl-1H-pyrazol-5-yl)methanone]
tubulin
  pIC50: 4.85
HCT116 cells; [1]
  pIC50: 6.50

## COc1cc(OC)cc(N2CCN(C(=O)c3cc(N4CCC(O)C4)nn3-c3ccccc3)CC2)c1 (stereo not shown) [Example E106, [4-(3,5-Dimethoxyphenyl)piperazin-1-yl][5-(3-hydroxypyrrolidin-1-yl)-2-phenyl-2H-pyrazol-3-yl]methanone]
tubulin
  pIC50: 5.00
HCT116 cells; [1]
  pIC50: 6.85

## Cc1cc(C(=O)N2CCN(c3cccnc3)CC2)n(-c2ccccc2)n1 [3/153]
tubulin
  pIC50: 5.66
HCT116 cells; [1]
  pIC50: 7.65

## COc1cc(OC)cc(N2CCN(C(=O)c3cc(C(F)(F)F)nn3-c3cccc(C#N)c3)CC2)c1 [Example E56, 3-{5-[4-(3,5-Dimethoxyphenyl)piperazine-1-carbonyl]-3-trifluoromethylpyrazol-1-yl}benzonitrile]
tubulin
  pIC50: 5.96
HCT116 cells; [1]
  pIC50: 6.84

## Cc1cc(C(=O)N2CCN(c3cccc(Cl)c3)CC2)n(-c2ccc(F)cc2F)n1 [Example E42, [4-(3-Chlorophenyl)piperazin-1-yl][2-(2,4-difluorophenyl)-5-methyl-2H-pyrazol-3-yl]methanone]
tubulin
  pIC50: 5.68
HCT116 cells; [1]
  pIC50: 7.30

## Cc1cc(C(=O)N2CCN(c3cc(Cl)ccc3C)CC2)n(-c2ccccc2)n1 [3/33]
tubulin
  pIC50: 5.52
HCT116 cells; [1]
  pIC50: 6.77

## COc1cccc(-n2nc(C)cc2C(=O)N2CCN(c3cccc(C(F)(F)F)c3)CC2)c1 [3/133]
tubulin
  pIC50: 5.21
HCT116 cells; [1]
  pIC50: 6.67

## Cc1cccc(-n2nc(C)cc2C(=O)N2CCN(c3ccccc3C(F)(F)F)CC2)c1 [3/55]
tubulin
  pIC50: 5.26
HCT116 cells; [1]
  pIC50: 5.87

## Cc1cccc(N2CCN(C(=O)c3cc(C)nn3-c3ccccc3)CC2C)c1 (stereo not shown) [3/109]
tubulin
  pIC50: 5.10
HCT116 cells; [1]
  pIC50: 5.36

## Cc1cc(C(=O)N2CCN(c3ccccc3C)CC2)n(-c2ccccc2)n1 [3/42]
tubulin
  pIC50: 5.30
HCT116 cells; [1]
  pIC50: 7.07

## COc1cccc(-n2nc(C)cc2C(=O)N2CCN(c3ccc(Cl)c(Cl)c3)CC2)c1 [3/81]
tubulin
  pIC50: 5.46
HCT116 cells; [1]
  pIC50: 6.53

## Cc1cc(CN2CCN(c3cccc(Cl)c3)CC2)n(-c2ccccc2)n1 [Example E14, [4-(3-chlorophenyl)piperazin-1-yl](5-methyl-2-phenyl-2H-pyrazol-3-yl)methane]
tubulin
  pIC50: 4.92
HCT116 cells; HCT-116, 48 hours at 37° C.
  pIC50: 5.51

## Cc1cc(C(=O)N2CCN(c3ccc(Br)c(Cl)c3)CC2)n(-c2ccccc2)n1 [Example E59, [4-(4-Bromo-3-chlorophenyl)piperazin-1-yl](5-methyl-2-phenyl-2H-pyrazol-3-yl)methanone]
tubulin
  pIC50: 5.68
HCT116 cells; [1]
  pIC50: 6.98

## COc1ccc(Cl)cc1N1CCN(C(=O)c2cc(C)nn2-c2ccc(Cl)cc2)CC1 [3/75]
tubulin
  pIC50: 4.77
HCT116 cells; [1]
  pIC50: 6.33

— patent US20050130989A1, “N-arylheteroaromatic products compositions containing them and use thereof” (Aventis Pharma S. A., priority 2003, published 2005)
